Experimental data reported in a melting point compilation (Tetko et al.; mined from patent text by program, amines drawn as free bases though some values may be those of a salt).

| Structure (SMILES) | melting point [°C] |
| --- | --- |
| Fc1cc(F)c(-c2c(Cl)nc3nccn3c2NCC(F)(F)F)c(F)c1 | 155 to 157 |
| O=C1C2CCN(CC2)C1Cc1ccc(-c2ccc(F)cc2)cc1 (configuration not stated) | 122 to 123 |
| CC(=O)Nc1c(C(=O)c2cccc(C)n2)[nH]c2cc(Cl)c(Br)cc12 | 234 to 236 |
| CCOC(=O)CC(=O)Nc1nc(-c2ccc(OC)cc2)c(-c2cccnc2)s1 | 202 to 203 |
| COc1cc(CCCC2SC(=O)NC2=O)ccc1OCc1coc(/C=C/c2ccccc2)n1 (configuration not stated) | 154 to 155 |
| CCn1c(=O)n(OCc2ccccc2)c(=O)c2cc(F)c(N3CCCC3)cc21 | 174 to 176 |
| CC(C)COc1ccc(-c2nc3cccc(O)c3s2)cc1C#N | 200 to 202 |
| Nc1cccc2c1CC=CC2 | 37 to 39 |
| O=C1Nc2ccccc2Oc2cscc21 | 240 to 241 |
| Cc1cccc(Nn2cnc(C)c2C)c1 | 144 |
| COc1cc(C(=O)O)cc2ccc3ccccc3c(=O)c12 | 252 to 253 |
| O=C(O)CCn1ccc2cc(OCc3ccc4ccccc4n3)ccc21 | 157 to 160 |
| Cc1nc(N2CCC(Cc3ccc(OC(F)F)cc3)C2=O)sc1C(=O)NCc1ccc(F)cc1 (configuration not stated) | 143 to 145 |
| Cc1cc(-n2ccnc2)c2cccc(OCc3c(Cl)ccc(-n4cccc4CNC(=O)C=Cc4ccc(C(=O)O)cc4)c3Cl)c2n1 | 166 to 170 |
| Cc1ccccc1NN=C(Cl)c1ccccc1 | 64.5 to 66 |
| CC(C)c1cccc(C(C)C)c1NS(=O)(=O)CC(=O)N(Cc1ccccc1)C(C)C | 168 to 170 |
| COc1cc(N(C)C)cc(CN(C)CCc2ccc(N=C(N)c3cccs3)cc2)c1O | 91 to 93 |
| COC(=O)[C@H](Cc1c[nH]cn1)NC(=O)[C@H](Cc1ccccc1)NC(=O)[C@H](Cc1ccccc1)NC(=O)C(C)(C)C | 128 to 131 |
| CCc1ccc2c(c1)C(Cl)Cc1ccc(F)cc1S2 (configuration not stated) | 68 to 70 |
| CC1(C)Oc2ccc(Br)cc2C(n2ccccc2=O)=C1CBr | 175 |
| O=C(O)c1cn(-c2ccncc2F)c2cc(F)c(F)cc2c1=O | 271 to 273 |
| O=C(O)[C@@H]1CCCN1C(=O)C(Sc1nc2cc(Cl)ccc2s1)c1ccccc1 (some centres not stated) | 160 to 161 |
| CN(CCN1C(=O)c2ccccc2S1(=O)=O)C1COc2ccccc2O1 (configuration not stated) | 181 |
| COc1ccc(-c2cc(C(=O)NCc3ccccc3)c(=O)n(CC3CCCC3)n2)cc1 | 108 |
| CNC(=O)/C(=N/OC)c1ccccc1Oc1cc(C)cc(C)c1 | 90 to 91 |
| CCOC(=O)CCC1OC(n2cc(CC)c(=O)[nH]c2=O)CC1OC(C)=O (configuration not stated) | 137 to 138 |

| Structure (SMILES) | melting point [°C] |
| --- | --- |
| CC(=O)NC[C@H]1CN(c2ccc(N3CCC(F)(CO)CC3)c(F)c2)C(=O)O1 | 154 to 156 |
| N#Cc1nc(-c2cnn(-c3c(Cl)cc(C(F)(F)F)cc3Cl)n2)[nH]c1C#N | 192 to 194 |
| CN(CCc1ccc(O)c(O)c1)C(=O)/C=C/c1cccnc1 | 155 to 158 |
| Cc1cc(C)c(CCCc2c(C)nc(N)nc2N)cc1C | 188 to 190 |
| CC#CC1(O)CCC2C3CCC4=CC(=O)CCC4C3C(=CF)CC21C (configuration not stated) | 148 |
| OCc1csc(CN2CCCC2)c1 | 111 to 112 |
| O=C1OC(c2ccc(Cl)cc2)c2ccccc21 (configuration not stated) | 124 |
| OCC1OC(n2c(Cl)nc3c(Br)c(Br)ccc32)C(O)C1O (configuration not stated) | 167 to 169 |
| CCOC(=Cc1ccc(C(=O)OC)cc1)c1ccc2c(c1)C(C)(C)CCC2(C)C | 204 to 206 |
| O=C1c2ccccc2C(=O)N1CCCC(c1ccc(F)cc1)c1ccc(F)cc1 | 69 to 70 |
| COc1cc2c(=O)c(C)cn3c4cc(Br)ccc4c(c1)c23 | 201 to 204 |
| CC(C)(C)NS(=O)(=O)c1cc(C(=O)Cl)ccc1Cl | 97 |
| CNC(=O)N1CCC(CN2CCC(NC(=O)c3cc(Cl)c(N)cc3OC)CC2)CC1 | 202 to 204 |
| COc1cc(N)c(Cl)cc1Br | 40 to 41 |
| CCOC(=O)/C=C/c1ccc(OC)c(F)c1 | 39 to 41 |
| COc1cc(C)c(C(=O)c2c(OC)ccc3ccccc23)c(OC)c1OC | 72 |
| S=c1[nH]ccn1C1CCCc2ccccc21 (configuration not stated) | 188 to 189 |
| Cc1cc(-c2nnc3c4ccccc4c(OCc4cc(C(C)(C)C)cnn4)nn23)no1 | 219 to 221 |
| CC(C)(C)c1cc(-c2nnc(C(N)=O)s2)cc(C(C)(C)C)c1O | 200 to 201 |
| Cc1ccc2oc(=O)c(=O)oc2c1 | 121 to 123 |
| COc1cc(NC(=O)Nc2ccc(N3CCN(C(=O)Nc4ccc(OCCO)cc4C(F)(F)F)CC3)cc2)cc(OC)c1 | 209 to 210 |
| Cc1cc(CNC(=O)c2cc(-n3cnn(Cc4ccc(F)cc4)c3=O)n[nH]2)[nH]n1 | 239 to 241 |
| C#Cc1c(O)c(C)c(C)c(O)c1C#C | 152 |
| CCCCCCCCc1ccc(CCC(CO)(CO)[N+](=O)[O-])cc1 | 80 to 82 |
| O=C1C(O)SCN1c1cccc([N+](=O)[O-])c1 (configuration not stated) | 129 to 131 |
| C=C(C)C(C)n1c(=O)c(C(C)C)cc2c3c(cc(C)c21)C(C)C(C)(CI)O3 (configuration not stated) | 191 to 192 |

| Structure (SMILES) | melting point [°C] |
| --- | --- |
| O=C(Nc1cc(C(F)(F)F)ccc1O)Nc1ccccc1C(F)(F)F | 158 to 159 |
| N#Cc1cccc(CN2CCN(c3ccc(N)cc3)CC2)c1 | 79 to 81 |
| O=C1CNc2ncc(I)cc2N1Cc1cc(C(F)(F)F)ccc1Cl | 252 to 253 |
| CCN1CCOc2cc(Nc3ncc(Cl)c(Nc4ccccc4C(=O)NC)n3)ccc2C1=O | 215 to 220 |
| COC(=O)c1ccc(NC(=O)CSC(C)=O)cc1 | 137 to 139 |
| C#CC(OC)c1cc(C(C)(C)C)cc(C(C)(C)C)c1OC (configuration not stated) | 68 to 70 |
| Nc1cccc(C23CC2C(=O)NC3=O)c1 (configuration not stated) | 135 to 137 |
| Cn1cc2c(n1)-c1cnn(C)c1CC2 | 140 to 145 |
| O=C1CCCC(c2ccccc2)(c2ccccc2)N1 | 193 to 196 |
| O[C@@H](CNCCOc1ccc2sc(-c3ncon3)cc2c1)COc1ccccc1 | 101 to 102 |
| CCOC(=O)c1c(N(C)C)cc(C)c([N+](=O)[O-])c1Cl | 76 |
| CC(C)N(CCCCOc1ccc(-c2nnc(CSCCOc3ccccc3)o2)cc1)C(C)C | 42 to 44 |
| CNc1cnn(-c2cccnc2)c1Br | 77 to 79 |
| CN(C)CCCn1c2c(c3ccccc31)CCSCCC2 | 70 to 71 |
| O=c1[nH]c2cc([N+](=O)[O-])c(Sc3cccc4cnccc34)cc2o1 | 255 to 260 |
| Cc1cc(-c2nnc3c4ccccc4c(OCc4cnn(C)c4)nn23)no1 | 212 to 213 |
| CCCCCCCCCCNC(=O)C=C(c1ccccc1)c1ccc(N)cc1 | 90 to 100 |
| O=C(O)c1cn(C2COC2)c2c(F)c(N3CCNCC3)cc(F)c2c1=O | > 300 |
| Brc1ccc(-c2nn[nH]n2)cc1 | 271 to 273 |
| CC1CCN(S(=O)(=O)Nc2cc(C(c3cc(F)ccc3F)S(=O)(=O)c3ccc(Cl)cc3)c(Cl)cn2)CC1 (configuration not stated) | 215 to 218 |
| COC(=O)c1c(Oc2ccccc2[N+](=O)[O-])c2ccccc2n1C | 119 to 121 |
| Fc1ccc(-n2ncnc2-c2ccncc2)cc1 | 114 to 115 |
| FC(F)(F)Oc1ccc(-c2nccc(Cl)n2)cc1 | 70 to 73 |
| CCOC(=O)c1ccc(NCc2ccccc2)cc1 | 90 to 93 |
| CC(=O)c1cc(C(=O)O)c(O)c([N+](=O)[O-])c1 | 192 to 193 |
| CC1(C)CC(=O)c2c(-c3ccccn3)cn(-c3ccccn3)c2C1 | 171 to 174 |

| Structure (SMILES) | melting point [°C] |
| --- | --- |
| COc1ccc(-c2cnc(NC(=S)Cc3ccccc3)c(Cc3ccccc3)n2)cc1 | 45 to 47 |
| O=C1CCCCCCCCCCCCCCCCCCCCCCC1O (configuration not stated) | 39 to 40 |
| Nc1ccccc1NC(=O)c1ccc(COc2ccc3ncnc(Nc4cccc(Br)c4)c3c2)cc1 | 215 to 218 |
| Cn1nc(-c2ccc(S(C)(=O)=O)cc2)c2ccccc2c1=O | 218 to 220 |
| Cn1c(=O)c2c(nc(C=Cc3cccc(N)c3)n2C)n(C)c1=O | 222 to 224 |
| COC(=O)C(C)=Cc1cc(NC(=S)N2CCCCN2)ccc1Cl | 120 to 121 |
| CCC(=O)OCC(=O)C1(OC(=S)CC)CCC2C3CC(C)C4=CC(=O)C=CC4(C)C3C(O)CC21C (configuration not stated) | 117 to 119 |
| CCOC(=O)c1c(CN(CC)CC)nc2sc3ncccc3c2c1-c1ccc(OC)c(OC)c1 | 156 to 157 |
| CCn1cc(C(=O)O)c(=O)c2c1SC(=NO)C2 | 332 to 334 |
| CC(=O)OC1CSC(Oc2cccc(-c3cnccn3)c2)C(OC(C)=O)C1OC(C)=O (configuration not stated) | 92 |
| Nc1cccc(-c2ccc(CCN3CCN(C(=O)Oc4ccccc4)CC3)cc2)n1 | 102 to 104 |
| CCc1cc(NC(=O)c2cccs2)cc(CC)c1O | 190 to 192 |
| CCCCN(Sc1nc2ccccc2s1)C(C)(C)C | 55 to 56 |
| CCC(=O)Nc1ccc2[nH]cc(C3CCN(C)CC3)c2n1 | 98.9 to 101 |
| Fc1c(F)c(C(F)(F)F)c(F)c(F)c1Nc1nc(Cl)nc(Cl)c1Cl | 152 to 153 |
| COc1cc(COc2nn(C)cc2CC(=O)O)ccc1OCc1nc(-c2ccccc2)oc1C | 153 to 154 |
| CC1(C)COc2cc(Cl)cc(Cl)c2C(O)(c2ccccn2)C1 (configuration not stated) | 156 |
| COc1ccc(S(=O)(=O)N2C(=O)C(OC(=O)Oc3ccccc3)(c3ccccc3OC(F)(F)F)c3cc(Cl)ccc32)c(OC)c1 (configuration not stated) | 203 to 204 |
| COC(=NS(=O)(=O)c1nc(-c2ccccc2Cl)ns1)C(C)C | 75 to 76 |
| S=P(SC1CCCCC1)(C1CCCCC1)C1CCCCC1 | 82 to 85 |
| CC(=O)Oc1cccc(C(=Cc2ccccc2)c2cccc(OC(C)=O)c2OC(C)=O)c1OC(C)=O | 163 |
| CC(C)(C)OC(=O)N[C@H]1CCCCNC1=O | 147 to 149 |
| Cc1ccc(S(=O)(=O)OCc2cc([N+](=O)[O-])ccc2F)cc1 | 89 to 91 |
| CC(N)Cn1ncc2ccc3c(c21)CC(O)CO3 (configuration not stated) | 46 to 51 |
